According to patent publication US9102697B2, “Trioxacarcins and uses thereof” (President and Fellows of Harvard College, priority 2010, dated 2015):

How the values were obtained:
nuclei of H460 cells = experiment: Fluorescence microscopy of labeled H460 cells; assay type: cell-based; conditions: 0.4 μM, 5 h at 37 °C, co-stain TO-PRO-3
Procedure: Fluorescence images of nuclei of H460 cells labeled with DC-45-A2 [4.0 μM] or dideoxy-DC-45-A2 [0.4 μM] for 5 h at 37° C. is provided in FIG. 15. […] The scale bar represents 10 μm.
Experimental Details for Fluorescence Microscopy: H460 cells were grown on 22 mm glass coverslips and allowed to attach for 24 h. Subconfluent H460 cells (50-60% confluency) were treated with drugs of desired concentration and incubated at 37° C. for 5 h. The coverslips were washed three times with warm PBS. The cells were then fixed with 4% paraformaldehyde in PBS at 23° C. for 15 min. At 23° C., the cells were permeablized with 0.1% Triton-X100 in PBS for 15 min and blocked with 5% BSA for 40 min. After two washes with PBS, the cells were incubated with 0.2 µM TO-PRO-3 (Invitrogen) in PBS at 23° C. for 15 min. The coverslips were washed three times with PBS and mounted with Mowiol on microscope slides. Fluorescent images were captured on an Olympus IX71 inverted microscope equipped with a 60× water-immersion objective, a Nikon Intensilight Illuminator, and an Andor iXon EMCCD camera. Imaging data of DC-45-A2 and dideoxy DC-45-A2 were collected with a 387/11 nm excitation filter and a 510/84 nm emission filter purchased from Semrock. TO-PRO-3 dye was imaged using Cy5 channels. The images were complied and colorized using ImageJ software.

Water solubility = conditions: attenuated by saturation with sodium chloride

Substance	localization in cells (nuclei of H460 cells)	water solubility (Water solubility)
Dideoxy-DC-45-A2	co-localizes with nuclear DNA	–
DC-45-A2	–	appreciable water solubility
